Experimental findings from patent publication US20250145589A1, “PYRIDINE DERIVATIVE AND USE THEREOF” (SICHUAN HUIYU PHARMACEUTICAL CO., LTD., priority 2021, published 2025) are described below.

pIC50: −log10 of the molar value.

In experiment [1] the target is PI3Kδ (Homo sapiens (Human), UniProt O00329). The experiment can be described thus: Inhibition of PI3Kδ efficacy assay (ADP-Glo kinase assay). The format is biochemical. The conditions noted are these: Table 4; read-out: PI3Kδ inhibitory activity (IC50). The procedure, abridged:
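Luminescent ADP-Glo readout of PI3Kδ: after a 60 min RT reaction with PI/ATP substrate, ATP depletion (40 min) and ADP detection (40 min) steps followed. Compounds tested as eight five-fold serial dilutions; inhibition rates fitted to log(inhibitor) vs. response, variable slope, for IC50.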
In general terms: ADP-Glo turns the ADP formed in a reaction into a luminescent signal.

Experiment [2] deals with NCI-H358-AMGR drug-resistant cell line. The experiment is described as follows: NCI-H358-AMGR drug-resistant cell proliferation inhibitory activity test. The format is cell-based. The following applies: 72 h; NCI-H358-AMGR drug-resistant cells, 3 days incubation, CellTiter-Glo. In short, it runs like this: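 Luminescent CellTiter-Glo read-out after 3-day, 37° C compound exposure (8 points, 5-fold series) of AMG510-resistant NCI-H358 cells plated at 4×10^3 per well.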

Experiment [3] relates to MIA PaCa-2 cells (KRAS G12C mutant). The experiment can be described thus: MIA PaCa-2 cell anti-proliferation (CellTiter-Glo). Format: cell-based. The conditions noted are these: Homo sapiens, 72 h; MIA Paca-2 cells, 3 days, Table 7; read-out: MIA PaCa-2 (IC50). In short, it runs like this: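 Viable-cell luminescence (CellTiter-Glo, ≥30 min at 25 °C) measured after a 3-day, 37 °C exposure to compounds at 9 points, 4-fold spaced, in DMEM containing 10% FBS plus 2.5% horse serum. IC50 derived versus no-inhibitor wells.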
A general note: Cellular ATP, detected with luciferase, serves as a proxy for viable cell number.

The target of experiment [4] is PI3Kα (Homo sapiens (Human), UniProt P42336). The experiment can be described thus: Inhibition of PI3Kα efficacy assay (ADP-Glo kinase assay). Format: biochemical. The conditions noted are these: Table 4; read-out: PI3Kα inhibitory activity (IC50). In short, it runs like this: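 ADP-Glo luminescent detection of ADP from PI3Kα acting on PI substrate with ATP, 60 min at RT; compounds in 8-point five-fold serial dilution from 2 mM DMSO stock. IC50 from four-parameter variable-slope fit.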

Experiment [5] concerns the target KRAS^G12C-SOS1 (Homo sapiens (Human), UniProt P01116, G12C). The experiment can be described thus: HTRF KRAS G12C/SOS1 binding assay. The following applies: Table 5. In short, it runs like this: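 Compound was serially diluted five-fold over eight points, with a 2 mM DMSO stock. After anti-tag-Tb3+ and anti-tag-XL665 were added, plates were incubated 3 h at 4 °C and read by HTRF (ex 337 nm, em 620/665 nm ratio). IC50 values come from four-parameter variable-slope fits.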
(TR-FRET usually uses a lanthanide donor and a delayed reading to cut background.)

PI3Kδ, sequence (O00329 whole entry): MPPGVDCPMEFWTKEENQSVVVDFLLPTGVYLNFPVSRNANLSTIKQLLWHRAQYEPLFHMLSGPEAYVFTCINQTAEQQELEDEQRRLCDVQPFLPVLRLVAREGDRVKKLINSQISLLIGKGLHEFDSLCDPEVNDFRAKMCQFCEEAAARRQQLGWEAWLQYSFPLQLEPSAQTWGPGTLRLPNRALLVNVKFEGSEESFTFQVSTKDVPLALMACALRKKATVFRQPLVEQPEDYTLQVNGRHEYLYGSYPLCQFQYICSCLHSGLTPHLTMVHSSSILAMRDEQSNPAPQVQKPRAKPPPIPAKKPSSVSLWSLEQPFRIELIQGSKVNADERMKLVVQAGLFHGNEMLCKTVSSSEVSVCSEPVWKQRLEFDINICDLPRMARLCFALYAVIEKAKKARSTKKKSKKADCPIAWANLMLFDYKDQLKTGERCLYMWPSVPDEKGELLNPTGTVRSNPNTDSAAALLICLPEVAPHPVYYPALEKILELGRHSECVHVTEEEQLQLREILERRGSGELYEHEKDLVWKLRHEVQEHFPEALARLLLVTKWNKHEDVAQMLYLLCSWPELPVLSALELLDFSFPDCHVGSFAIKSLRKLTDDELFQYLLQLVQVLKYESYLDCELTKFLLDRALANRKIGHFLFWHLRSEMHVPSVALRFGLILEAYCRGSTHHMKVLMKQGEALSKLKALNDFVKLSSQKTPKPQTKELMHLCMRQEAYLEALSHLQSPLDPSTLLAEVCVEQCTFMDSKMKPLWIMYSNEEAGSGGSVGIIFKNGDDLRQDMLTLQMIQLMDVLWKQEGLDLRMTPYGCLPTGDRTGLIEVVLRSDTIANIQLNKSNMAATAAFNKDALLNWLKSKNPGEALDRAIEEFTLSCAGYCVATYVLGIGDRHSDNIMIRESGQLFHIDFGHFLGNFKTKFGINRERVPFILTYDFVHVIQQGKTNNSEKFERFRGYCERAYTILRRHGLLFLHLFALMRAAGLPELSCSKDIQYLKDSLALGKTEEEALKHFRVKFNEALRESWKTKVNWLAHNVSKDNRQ
PI3Kδ, sequence (P27986 whole entry partner): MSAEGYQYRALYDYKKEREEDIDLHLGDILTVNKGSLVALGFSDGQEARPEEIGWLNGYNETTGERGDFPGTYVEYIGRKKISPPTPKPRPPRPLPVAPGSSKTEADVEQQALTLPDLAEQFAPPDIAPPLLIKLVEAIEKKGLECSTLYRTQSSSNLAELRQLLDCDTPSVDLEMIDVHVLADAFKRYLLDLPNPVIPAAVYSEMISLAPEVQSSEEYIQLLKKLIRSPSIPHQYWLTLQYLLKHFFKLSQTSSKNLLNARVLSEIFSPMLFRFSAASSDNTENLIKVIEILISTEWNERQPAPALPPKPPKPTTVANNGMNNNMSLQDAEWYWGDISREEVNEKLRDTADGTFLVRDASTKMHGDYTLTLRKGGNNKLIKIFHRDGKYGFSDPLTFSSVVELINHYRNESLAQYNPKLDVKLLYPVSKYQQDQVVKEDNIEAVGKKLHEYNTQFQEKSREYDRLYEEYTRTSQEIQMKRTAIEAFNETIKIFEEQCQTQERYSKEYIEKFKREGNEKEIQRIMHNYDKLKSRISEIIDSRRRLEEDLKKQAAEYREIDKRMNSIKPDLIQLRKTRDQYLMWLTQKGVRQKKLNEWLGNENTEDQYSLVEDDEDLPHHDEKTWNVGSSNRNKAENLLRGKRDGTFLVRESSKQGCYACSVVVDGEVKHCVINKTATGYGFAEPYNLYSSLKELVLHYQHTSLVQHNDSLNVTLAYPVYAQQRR
KRAS^G12C-SOS1, sequence (P01116-2 other isoform, or with tags, fused parts or gaps G12C): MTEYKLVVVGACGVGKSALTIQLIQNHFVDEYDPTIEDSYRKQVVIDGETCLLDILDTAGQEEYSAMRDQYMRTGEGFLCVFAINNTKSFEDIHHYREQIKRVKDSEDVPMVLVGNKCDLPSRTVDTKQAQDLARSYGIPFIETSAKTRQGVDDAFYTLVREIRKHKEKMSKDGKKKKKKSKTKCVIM
PI3Kα, sequence (P42336 whole entry): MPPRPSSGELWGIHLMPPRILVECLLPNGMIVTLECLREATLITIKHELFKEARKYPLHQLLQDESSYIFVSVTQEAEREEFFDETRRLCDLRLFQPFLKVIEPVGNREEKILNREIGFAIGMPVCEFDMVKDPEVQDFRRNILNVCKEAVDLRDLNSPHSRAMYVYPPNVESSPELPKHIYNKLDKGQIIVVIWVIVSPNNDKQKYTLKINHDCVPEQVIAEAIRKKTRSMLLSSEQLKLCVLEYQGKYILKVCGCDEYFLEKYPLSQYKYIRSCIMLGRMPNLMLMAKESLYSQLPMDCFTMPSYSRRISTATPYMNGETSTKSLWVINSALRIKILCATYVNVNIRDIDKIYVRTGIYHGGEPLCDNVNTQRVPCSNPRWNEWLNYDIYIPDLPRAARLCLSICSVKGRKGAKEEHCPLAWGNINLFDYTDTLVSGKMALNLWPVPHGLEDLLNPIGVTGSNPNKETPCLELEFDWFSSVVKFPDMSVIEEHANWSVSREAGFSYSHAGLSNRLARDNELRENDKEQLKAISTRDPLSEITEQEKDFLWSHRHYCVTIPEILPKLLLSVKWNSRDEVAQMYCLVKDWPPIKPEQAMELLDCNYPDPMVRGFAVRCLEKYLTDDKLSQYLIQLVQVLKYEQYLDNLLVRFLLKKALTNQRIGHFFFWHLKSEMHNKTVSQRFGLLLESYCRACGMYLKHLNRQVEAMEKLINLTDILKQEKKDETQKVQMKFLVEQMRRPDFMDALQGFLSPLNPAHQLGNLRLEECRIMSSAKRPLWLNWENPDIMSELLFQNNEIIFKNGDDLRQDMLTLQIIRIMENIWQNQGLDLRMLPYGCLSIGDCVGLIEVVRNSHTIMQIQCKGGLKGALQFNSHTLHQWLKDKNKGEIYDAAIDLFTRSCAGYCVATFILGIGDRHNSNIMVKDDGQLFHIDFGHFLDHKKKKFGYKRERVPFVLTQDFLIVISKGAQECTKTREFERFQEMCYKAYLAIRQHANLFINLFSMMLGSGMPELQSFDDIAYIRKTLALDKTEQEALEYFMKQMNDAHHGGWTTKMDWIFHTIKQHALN
PI3Kα, sequence (P27986 whole entry partner): as the sequence (P27986 whole entry partner) above

On to `COc1ncc(-c2ccc3ncnc(N4C5CCC4CN(C(=O)/C=C/C(C)=O)C5)c3c2)cc1NS(=O)(=O)c1ccc(F)cc1F` [Example 144, 2,4-difluoro-N-(2-methoxy-5-(4-(3-((E)-4-oxopent-2-enoyl)-3,8-diazabicyclo[3.2.1]octan-8-yl)quinazolin-6-yl)pyridin-3-yl)benzenesulfonamide], for which the pIC50 in experiment [1] was 7.87; in experiment [2], 7.37; in experiment [3], 7.23; in experiment [4] it was 8.49; in experiment [5], 6.41.
In the case of `COc1ncc(-c2ccc3ncnc(N4CC5CCC(C4)N5C(=O)/C=C/C(C)=O)c3c2)cc1NS(=O)(=O)c1c(F)cccc1F` [Example 145, 2,6-difluoro-N-(2-methoxy-5-(4-(8-((E)-4-oxopent-2-enoyl)-3,8-diazabicyclo[3.2.1]octan-3-yl)quinazolin-6-yl)pyridin-3-yl)benzenesulfonamide], the pIC50 was 7.62 in experiment [1]; 6.65 in experiment [2]; 7.11 in experiment [3]; 9.36 in experiment [4]; 6.70 in experiment [5].
The like results for `COc1ncc(-c2ccc3ncnc(N4CCC5(CC4)CN(C(=O)/C=C/C(C)=O)C5)c3c2)cc1NS(=O)(=O)c1ccccc1F` [Example 150, (E)-2-fluoro-N-(2-methoxy-5-(4-(2-(4-oxopent-2-enoyl)-2,7-diazaspiro[3.5]nonan-7-yl)quinazolin-6-yl)pyridin-3-yl)benzenesulfonamide] were, in that order, 7.97, 6.95, 7.23, 9.96 and 6.63.
On to `COc1ncc(-c2ccc3ncnc(N4CCN(C(=O)/C=C/C(C)=O)C[C@@H]4C)c3c2)cc1NS(=O)(=O)c1ccccc1F` [Example 152, (S,E)-2-fluoro-N-(2-methoxy-5-(4-(2-methyl-4-(4-oxopent-2-enoyl)piperazin-1-yl)quinazolin-6-yl)pyridin-3-yl)benzenesulfonamide], for which the pIC50 in experiment [1] is 7.81; in experiment [2], 7.21; in experiment [3], 7.16; in experiment [4], 9.55; in experiment [5], 6.76.
For `COc1ncc(-c2ccc3ncnc(N4CCN(C(=O)/C=C/C(C)=O)C[C@@H]4C)c3c2)cc1NS(=O)(=O)c1ccc(F)cc1` [Example 153, (S,E)-4-fluoro-N-(2-methoxy-5-(4-(2-methyl-4-(4-oxopent-2-enoyl)piperazin-1-yl)quinazolin-6-yl)pyridin-3-yl)benzenesulfonamide], the pIC50 was 7.90 in experiment [1]; 7.00 in experiment [2]; 7.25 in experiment [3]; 9.14 in experiment [4]; 6.68 in experiment [5].
The like results for `COc1ncc(-c2ccc3ncnc(N4CCN(C(=O)/C=C/C(C)=O)C[C@@H]4C)c3c2)cc1NS(=O)(=O)c1c(F)cc(F)cc1F` [Example 154, (S,E)-2,4,6-trifluoro-N-(2-methoxy-5-(4-(2-methyl-4-(4-oxopent-2-enoyl)piperazin-1-yl)quinazolin-6-yl)pyridin-3-yl)benzenesulfonamide] were, in that order, 7.86, 7.21, 7.54, 9.27 and 6.74.
The matching figures for `COc1ncc(-c2ccc3ncnc(N4CC5CCC(C4)N5C(=O)/C=C/C(C)=O)c3c2)cc1NS(=O)(=O)c1c(F)cc(F)cc1F` [Example 155]: 7.27, 6.79, 7.11, 9.52 and 6.34.
The matching figures for `COc1ncc(-c2ccc3ncnc(N4CC5CCC4CN5C(=O)/C=C/C(C)=O)c3c2)cc1NS(=O)(=O)c1ccc(F)cc1F` (stereo not shown) [Example 158, (E)-2,4-difluoro-N-(2-methoxy-5-(4-(5-(4-oxopent-2-enoyl)-2,5-diazabicyclo[2.2.2]octan-2-yl)quinazolin-6-yl)pyridin-3-yl)benzenesulfonamide]: 7.46, 6.81, 6.85, 8.52 and 6.72.
Take `COc1ncc(-c2ccc3ncnc(N4CCN(C(=O)/C=C/C(C)=O)CC4)c3c2)cc1NS(=O)(=O)c1sc(C)nc1C` [Example 160, (E)-N-(2-methoxy-5-(4-(4-(4-oxopent-2-enoyl)piperazin-1-yl)quinazolin-6-yl)pyridin-3-yl)-2,4-dimethylthiazole-5-sulfonamide]: the pIC50 was 7.82 in experiment [1]; 7.16 in experiment [2]; 7.32 in experiment [3]; 8.70 in experiment [4]; 6.77 in experiment [5].
For `COc1ncc(-c2ccc3ncnc(N4CCC5(CC4)CN(C(=O)/C=C/C(C)=O)C5)c3c2)cc1NS(=O)(=O)c1ccc(F)cc1` [Example 161, (E)-4-fluoro-N-(2-methoxy-5-(4-(2-(4-oxopent-2-enoyl)-2,7-diazaspiro[3.5]nonan-7-yl)quinazolin-6-yl)pyridin-3-yl)benzenesulfonamide], the pIC50 is 8.00 in experiment [1]; 6.84 in experiment [2]; 7.17 in experiment [3]; 9.09 in experiment [4]; 6.55 in experiment [5].
As for `COc1ncc(-c2ccc3ncnc(N4CCN(C(=O)/C=C/C(C)=O)CC4)c3c2)cc1NS(=O)(=O)c1ncc(Cl)s1` [Example 165, (E)-5-chloro-N-(2-methoxy-5-(4-(4-(4-oxopent-2-enoyl)piperazin-1-yl)quinazolin-6-yl)pyridin-3-yl)thiazole-2-sulfonamide], the pIC50 in experiment [1] was 7.92; in experiment [2], 6.77; in experiment [3] it was 6.60; in experiment [4], 8.92; in experiment [5] it was 6.44.
The like results for `C=C(C(C)=O)C(=O)N1CCN(c2ncnc3ccc(-c4cnc(OC)c(NS(=O)(=O)c5ccc(F)cc5F)c4)cc23)CC1` [Example 168, 2,4-difluoro-N-(2-methoxy-5-(4-(4-(2-methylene-3-oxobutanoyl)piperazin-1-yl)quinazolin-6-yl)pyridin-3-yl)benzenesulfonamide] were, in that order, 7.76, 6.62, 7.31, 8.21 and 6.26.
The like results for `COc1ncc(-c2ccc3ncnc(N4CCN(C(=O)/C=C/C(C)=O)CC4)c3c2)cc1NS(=O)(=O)c1ccc(F)cc1Cl` [Example 169, (E)-2-chloro-4-fluoro-N-(2-methoxy-5-(4-(4-(4-oxopent-2-enoyl)piperazin-1-yl)quinazolin-6-yl)pyridin-3-yl)benzenesulfonamide] were, in that order, 7.72, 7.44, 7.50, 8.42 and 6.60.
The like results for `COc1ncc(-c2ccc3ncnc(N4CCC5(CC4)CN(C(=O)/C=C/C(C)=O)C5)c3c2)cc1NS(=O)(=O)c1ccc(F)cc1Cl` [Example 171, (E)-2-chloro-4-fluoro-N-(2-methoxy-5-(4-(2-(4-oxopent-2-enoyl)-2,7-diazaspiro[3.5]nonan-7-yl)quinazolin-6-yl)pyridin-3-yl)benzene-sulfonamide] were, in that order, 7.40, 7.38, 7.90, 7.89 and 6.36.

As a reminder, the pIC50 is the IC50 on a negative log10 scale, so that one unit is a factor of ten.
